The source of these data is publication PMC9609996, “SAR Study and Molecular Mechanism Investigation of Novel Naphthoquinone-furan-2-cyanoacryloyl Hybrids with Antitumor Activity” (Pharmaceutics, 2022).

Common to all, as to format: cell-based, human
One test concerns PC3. Kind of test: CCK-8 anti-proliferation assay, PC3. The conditions noted are these: mean ± SD; for IC50: 48 h. How it is done:
Human cervical cancer HeLa, human prostate cancer PC3, human colonic carcinoma HCT116, human lung carcinoma A549, human breast cancer MDA-MB-231, mouse melanoma B16, human ovarian cancer SKOV3, human hepatoma Hep3B, and human liver L02 cells were purchased from the Cell Bank of Shanghai Institute of Biochemistry and Cell Biology, Chinese Academy of Sciences (Shanghai, China). The HeLa, A549, B16, PC3, MDA-MB-231, HCT116, and L02 cells were cultured in Dulbecco’s modified Eagle medium (DMEM, Gibco Inc.; Gaithersburg, MD, USA). All cultures were supplied with 10% fetal bovine serum (FBS; YHSM, Beijing, China), 100 IU/mL of penicillin, and 100 μg/mL of streptomycin, and cells were incubated at 37 °C in an atmosphere of 5% CO2.
A CCK-8 kit (MCE, USA) was used to perform a CCK-8 assay. Cells were plated and grown in the 96-well plates for the indicated period (48 h) in the incubator, followed by an incubation with the CCK-8 solutions for 1–4 h. Subsequently, the absorbance (450 nm) was measured by a microplate reader. The median inhibitory concentration (IC50) was determined from the dose–response curve. Experiments were performed in a triplicate.

In test [1] the test system is AKT phosphorylation in HeLa cells. The test can be described thus: Western blot, AKT phosphorylation. The following applies: 6 h interval. How it is done:
Protein levels were determined by the standard Western blot assay. […] Cells harvested with trypsin were treated with 1× RIPA lysis buffer (50 mM Tris-HCl, pH 7.4, 150 mM NaCl, 0.25% deoxycholic acid, 1% NP-40, 1 mM ethylenediaminetetraacetate (EDTA), and protease inhibitor PMSF (Solarbio, Beijing, China) to extract the total proteins. Then, an aliquot of proteins from the total cell lysates (4–40 μg/lane) was separated using sodium dodecyl sulfate (8, 10, or 12%) polyacrylamide gel electrophoresis (BioRad Laboratories, Hercules, CA, USA). The aliquot was wet-transferred to a PVDF membrane (BioRad Laboratories, Hercules, CA, USA), blotted with primary antibodies (purchased from Cell Signaling Technology, Danvers, MA, USA) specific for the STAT3 (#12640), p-STAT3 (#9145), AKT (#4691), p-AKT (#4060), Bax (#5023), Bcl-xl (#2764), secondary isotype-specific antibodies (#7074) and glyceraldehyde-3-phosphate dehydro-genase (GAPDH, #2118) as the internal standard overnight; then, they were probed with secondary isotype-specific antibodies for another 2 h at 37 °C. The bound immuno-complexes were detected using a ChemiDOC XRS+ system (BioRad Laboratories, Hercules, CA, USA).
Background: In western blotting, separated proteins are transferred to a membrane and probed.

Another test relates to Bcl-xl in HeLa cells. The test can be described thus: Western blot, Bcl-xl. The conditions noted are these: 6–12 μM, 24 h. How it is done:
Protein levels were determined by the standard Western blot assay. HeLa cells were incubated with different concentrations of compound 5c or 0.1% DMSO for 24 h. Cells harvested with trypsin were treated with 1× RIPA lysis buffer (50 mM Tris-HCl, pH 7.4, 150 mM NaCl, 0.25% deoxycholic acid, 1% NP-40, 1 mM ethylenediaminetetraacetate (EDTA), and protease inhibitor PMSF (Solarbio, Beijing, China) to extract the total proteins. Then, an aliquot of proteins from the total cell lysates (4–40 μg/lane) was separated using sodium dodecyl sulfate (8, 10, or 12%) polyacrylamide gel electrophoresis (BioRad Laboratories, Hercules, CA, USA). The aliquot was wet-transferred to a PVDF membrane (BioRad Laboratories, Hercules, CA, USA), blotted with primary antibodies (purchased from Cell Signaling Technology, Danvers, MA, USA) specific for the STAT3 (#12640), p-STAT3 (#9145), AKT (#4691), p-AKT (#4060), Bax (#5023), Bcl-xl (#2764), secondary isotype-specific antibodies (#7074) and glyceraldehyde-3-phosphate dehydro-genase (GAPDH, #2118) as the internal standard overnight; then, they were probed with secondary isotype-specific antibodies for another 2 h at 37 °C. The bound immuno-complexes were detected using a ChemiDOC XRS+ system (BioRad Laboratories, Hercules, CA, USA).

With `N#C/C(=C\c1ccc(C2=CC(=O)c3ccccc3C2=O)o1)C(=O)NCCN1CCOCC1` [Compound 5c, (E)-2-cyano-3-(5-(1,4-dioxo-1,4-dihydronaphthalen-2-yl)furan-2-yl)-N-(2-morpholinoethyl)acrylamide], the IC50 (usually the concentration needed to halve the response being measured) in the test on PC3 was 20.5 ± 0.05 µM; in the test on PC3 (Homo sapiens, PC-3, 48 h) it was > 20.5 µM. Further, in the test with PC3 (Homo sapiens, PC-3, 20 μM, read-out: Inhibition Rate (%) at 20 μM PC3), the inhibition (commonly the change of the read-out against control, counted positive when it falls) at 20 µM is 25.54 ± 0.06%. Moreover, the “phosphorylation level of AKT” value in test [1] is listed as “effectively inhibited”. Besides, in the test on Bcl-xl in HeLa cells, the “total Bcl-xl levels” value is given as “significantly decreased”.
